Reference: US20040091407A1, “Novel process for preparing crystalline particles” (priority 2000, published 2004)

Experiment: Particle size measurement using a Malvern Particle Sizer S
Format: physicochemical
Conditions: crystalline particles of the calcium salt monohydrate prepared by sonocrystallisation
Procedure: Particle size of the two samples were measured using a Malvern Particle Sizer S. The (v0.5) values are as shown below: […]

D(v,0.5) particle size [microns]	Compound
42.3	C/C(=C/C(=O)c1ccccc1)N[C@@H](Cc1ccc(OCCc2nc(-c3ccccc3)oc2C)cc1)C(=O)[O-].C/C(=C/C(=O)c1ccccc1)N[C@@H](Cc1ccc(OCCc2nc(-c3ccccc3)oc2C)cc1)C(=O)[O-].[Ca+2] [Sample 2, calcium salt of (2S)-2-{[(Z)-1-methyl-3-oxo-3-phenyl-1-propenyl]amino}-3-{4-[2-(5-methyl-2-phenyl-1,3-oxazol-4-yl)ethoxy]phenyl}propanoic acid]
32.2	C/C(=C/C(=O)c1ccccc1)N[C@@H](Cc1ccc(OCCc2nc(-c3ccccc3)oc2C)cc1)C(=O)[O-].C/C(=C/C(=O)c1ccccc1)N[C@@H](Cc1ccc(OCCc2nc(-c3ccccc3)oc2C)cc1)C(=O)[O-].[Ca+2] [Sample 1, calcium salt of (2S)-2-{[(Z)-1-methyl-3-oxo-3-phenyl-1-propenyl]amino}-3-{4-[2-(5-methyl-2-phenyl-1,3-oxazol-4-yl)ethoxy]phenyl}propanoic acid]
